ChEMBL document CHEMBL1201862, “PubChem BioAssay data set” (2004)
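Protocol summary: plate cells (96-well), add compound at 5 concentrations, incubate 48 h, interpolate endpoints linearly. Abbreviation: GI50, concentration required for 50% inhibition of growth.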 The source made the active and inactive calls. No stated cut-off is given here; in the data, active = GI50 up to about 1.1 µM and inactive = higher.

What was measured:
Assay in all cases: NCI tumour cell line growth inhibition, 48 h
[1] = tested on: A498
[2] = tested on: ACHN
[3] = tested on: CAKI-1
[4] = tested on: CCRF-CEM
[5] = tested on: DU-145
[6] = tested on: HOP-92
[7] = tested on: KM12
[8] = tested on: MDA-MB-435
[9] = tested on: NCI-H226
[10] = tested on: NCI-H23
[11] = tested on: OVCAR-8
[12] = tested on: RXF 393
[13] = tested on: SF-268
[14] = tested on: SK-MEL-5
[15] = tested on: SK-OV-3
[16] = tested on: SR
[17] = tested on: SW-620
[18] = tested on: U-251

Measured: GI50

CCSc1nc(=S)n(-c2ccccc2)c(C)c1C(C)=O
inactive: [1] > 100 µM | [2] > 100 µM | [3] > 100 µM | [4] > 100 µM | [5] > 100 µM | [6] > 100 µM | [7] > 100 µM | [8] > 100 µM | [9] > 100 µM | [10] > 100 µM | [11] > 100 µM | [12] > 100 µM | [13] > 100 µM | [14] > 100 µM | [15] > 100 µM | [16] > 100 µM | [17] > 100 µM | [18] > 100 µM

COC(=O)[C@H](Cc1ccccc1)NP(=O)(O)OCC1OC(n2cc(C)c(=O)[nH]c2=O)CC1N=[N+]=[N-] (stereo partly specified)
inactive: [1] > 100 µM | [2] > 100 µM | [3] > 100 µM | [4] > 100 µM | [5] > 100 µM | [6] > 100 µM | [7] > 100 µM | [8] > 100 µM | [9] > 100 µM | [10] > 100 µM | [11] > 100 µM | [12] > 100 µM | [13] > 100 µM | [14] > 100 µM | [15] > 100 µM | [16] > 100 µM | [17] > 100 µM | [18] > 100 µM

CN1CC2=C(N=C(S)NC2c2ccccc2Cl)/C(=C/c2ccccc2Cl)C1 (stereo unspecified)
inactive: [1] 77.3 µM | [2] 25.1 µM | [3] > 100 µM | [4] 28.8 µM | [5] 76.2 µM | [6] 3.81 µM | [7] 56.1 µM | [8] 28.8 µM | [9] 52.7 µM | [10] 43.2 µM | [11] 33 µM | [12] > 100 µM | [13] 95.9 µM | [14] 12.2 µM | [15] > 100 µM | [16] 17.7 µM | [17] > 100 µM | [18] 80.5 µM

COC(=O)CCn1cnc2c(SC)ncnc21
inactive: [1] > 100 µM | [2] > 100 µM | [3] > 100 µM | [4] > 100 µM | [5] > 100 µM | [6] > 100 µM | [7] > 100 µM | [8] > 100 µM | [9] > 100 µM | [10] > 100 µM | [11] > 100 µM | [12] > 100 µM | [13] > 100 µM | [14] > 100 µM | [15] > 100 µM | [16] > 100 µM | [17] > 100 µM

CCC(=O)C(C)C1=Nc2nnc(CCCCCCCc3nnc4n3C(=O)C(C(C)C(=O)CC)=N4)n2C1=O (stereo unspecified)
inactive: [1] > 100 µM | [2] > 100 µM | [3] > 100 µM | [4] > 100 µM | [6] > 100 µM | [7] > 100 µM | [9] > 100 µM | [10] > 100 µM | [11] > 100 µM | [12] > 100 µM | [13] > 100 µM | [14] > 100 µM | [15] > 100 µM | [16] 21.6 µM | [17] > 100 µM | [18] > 100 µM

COC(=O)N[C@@H]1C[C@H]2CC[C@]1(O[Si](C(C)C)(C(C)C)C(C)C)C(=O)C2
inactive: [1] 21.4 µM | [2] 18.4 µM | [3] 23.9 µM | [4] 18 µM | [5] > 100 µM | [6] 17.5 µM | [7] 18.2 µM | [8] 17.9 µM | [9] 14.2 µM | [10] 17.1 µM | [11] 23.1 µM | [13] 12.9 µM | [14] 16.4 µM | [15] 21.3 µM | [16] 6.93 µM | [17] 27.7 µM | [18] > 10 µM

O=C(O)CCCc1ccc2c(c1)CC1(C2)Cc2ccc(CCCC(=O)O)cc2C1
inactive: [1] > 100 µM | [2] > 100 µM | [4] > 100 µM | [6] > 100 µM | [7] > 100 µM | [8] > 100 µM | [9] > 100 µM | [10] > 100 µM | [11] > 100 µM | [12] > 100 µM | [14] 54 µM | [15] > 100 µM | [16] > 100 µM | [18] > 100 µM

CC(=O)NNc1nc(C)c(C(=O)NNC(=O)C(=O)Nc2ccc(Cl)cc2Cl)s1
inactive: [2] 29.2 µM | [3] 28.3 µM | [4] 20.6 µM | [6] 25.9 µM | [7] 53.7 µM | [9] 34.2 µM | [10] 32.8 µM | [11] 40.2 µM | [13] 27.4 µM | [14] 30.5 µM | [15] 31.9 µM | [17] 22.2 µM | [18] 31.1 µM

Cc1cccc(Nc2cn(CCOc3ccccc3)c(=O)n(CCOc3ccccc3)c2=O)c1
inactive: [1] > 100 µM | [2] > 100 µM | [3] > 100 µM | [4] > 100 µM | [5] > 100 µM | [6] 56.2 µM | [7] > 100 µM | [8] > 100 µM | [10] > 100 µM | [12] > 100 µM | [13] > 100 µM | [14] > 100 µM | [16] > 100 µM | [17] > 100 µM | [18] > 100 µM

CCCC1(N2C(=O)c3ccc4c5c(ccc(c35)C2=O)N(C2(CCC)CCCCC2)C4=O)CCCCC1
inactive: [1] > 100 µM | [2] > 100 µM | [3] > 100 µM | [5] > 100 µM | [6] > 100 µM | [7] > 100 µM | [8] > 100 µM | [10] > 100 µM | [11] > 100 µM | [12] > 100 µM | [13] > 100 µM | [14] > 100 µM | [15] > 100 µM | [17] > 100 µM | [18] > 100 µM

CCC1CNC(=O)CC1CC(=O)OC (stereo unspecified)
inactive: [2] > 100 µM | [3] > 100 µM | [6] > 100 µM | [7] > 100 µM | [9] > 100 µM | [10] > 100 µM | [12] > 100 µM | [13] > 100 µM | [14] > 100 µM | [15] > 100 µM | [16] > 100 µM | [17] > 100 µM | [18] > 100 µM

NCC1Nc2ccccc2[C@@H](O)C1O (stereo partly specified)
inactive: [2] > 100 µM | [3] > 100 µM | [4] > 100 µM | [5] > 100 µM | [6] > 100 µM | [7] > 100 µM | [8] > 100 µM | [9] > 100 µM | [10] > 100 µM | [11] > 100 µM | [12] > 100 µM | [13] > 100 µM | [14] > 100 µM | [15] > 100 µM | [16] > 100 µM | [17] > 100 µM | [18] > 100 µM
